Source: patent US20250302832A1, “PYRAZINE DERIVATIVES AND USES THEREOF” (FOGHORN THERAPEUTICS INC., priority 2022, published 2025)

Legend:
HiBit-BRM fusion protein = target: T1, HiBit-BRM fusion protein (Homo sapiens, UniProt P51531); test: HiBiT-BRM cell-based degradation assay (Nano-Glo HiBiT lytic detection, 24 h); conditions: HeLa cell line expressing HiBiT-BRM; for DC50: read-out: BRM HiBit Degradation IC50
T1 construct: expressed in transfected cells
Summary of the method: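 Stable HeLa HiBiT-BRM cells treated 24 h with compounds (10-point 3-fold dilutions, 30 μM final top dose, duplicate). HiBiT levels read by Nano-Glo lytic luminescence; % degradation normalised to DMSO (high control) and 2 μM reference BRM/BRG1 degrader (low control).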

[1] = target: T2, HiBit-BRG1 fusion protein (Homo sapiens, UniProt P51532); test: HiBiT-BRG1 cell-based degradation assay (Nano-Glo HiBiT lytic detection, 24 h); conditions: HeLa cell line expressing HiBit-BRG1 and LgBit; for Dmax: read-out: BRG1 HiBit Degradation Maximum (%); for DC50: read-out: BRMG1 HiBit Degradation IC50
T2 construct: expressed in transfected cells
T2 sequence (P51532 whole entry, the tested form may be a part): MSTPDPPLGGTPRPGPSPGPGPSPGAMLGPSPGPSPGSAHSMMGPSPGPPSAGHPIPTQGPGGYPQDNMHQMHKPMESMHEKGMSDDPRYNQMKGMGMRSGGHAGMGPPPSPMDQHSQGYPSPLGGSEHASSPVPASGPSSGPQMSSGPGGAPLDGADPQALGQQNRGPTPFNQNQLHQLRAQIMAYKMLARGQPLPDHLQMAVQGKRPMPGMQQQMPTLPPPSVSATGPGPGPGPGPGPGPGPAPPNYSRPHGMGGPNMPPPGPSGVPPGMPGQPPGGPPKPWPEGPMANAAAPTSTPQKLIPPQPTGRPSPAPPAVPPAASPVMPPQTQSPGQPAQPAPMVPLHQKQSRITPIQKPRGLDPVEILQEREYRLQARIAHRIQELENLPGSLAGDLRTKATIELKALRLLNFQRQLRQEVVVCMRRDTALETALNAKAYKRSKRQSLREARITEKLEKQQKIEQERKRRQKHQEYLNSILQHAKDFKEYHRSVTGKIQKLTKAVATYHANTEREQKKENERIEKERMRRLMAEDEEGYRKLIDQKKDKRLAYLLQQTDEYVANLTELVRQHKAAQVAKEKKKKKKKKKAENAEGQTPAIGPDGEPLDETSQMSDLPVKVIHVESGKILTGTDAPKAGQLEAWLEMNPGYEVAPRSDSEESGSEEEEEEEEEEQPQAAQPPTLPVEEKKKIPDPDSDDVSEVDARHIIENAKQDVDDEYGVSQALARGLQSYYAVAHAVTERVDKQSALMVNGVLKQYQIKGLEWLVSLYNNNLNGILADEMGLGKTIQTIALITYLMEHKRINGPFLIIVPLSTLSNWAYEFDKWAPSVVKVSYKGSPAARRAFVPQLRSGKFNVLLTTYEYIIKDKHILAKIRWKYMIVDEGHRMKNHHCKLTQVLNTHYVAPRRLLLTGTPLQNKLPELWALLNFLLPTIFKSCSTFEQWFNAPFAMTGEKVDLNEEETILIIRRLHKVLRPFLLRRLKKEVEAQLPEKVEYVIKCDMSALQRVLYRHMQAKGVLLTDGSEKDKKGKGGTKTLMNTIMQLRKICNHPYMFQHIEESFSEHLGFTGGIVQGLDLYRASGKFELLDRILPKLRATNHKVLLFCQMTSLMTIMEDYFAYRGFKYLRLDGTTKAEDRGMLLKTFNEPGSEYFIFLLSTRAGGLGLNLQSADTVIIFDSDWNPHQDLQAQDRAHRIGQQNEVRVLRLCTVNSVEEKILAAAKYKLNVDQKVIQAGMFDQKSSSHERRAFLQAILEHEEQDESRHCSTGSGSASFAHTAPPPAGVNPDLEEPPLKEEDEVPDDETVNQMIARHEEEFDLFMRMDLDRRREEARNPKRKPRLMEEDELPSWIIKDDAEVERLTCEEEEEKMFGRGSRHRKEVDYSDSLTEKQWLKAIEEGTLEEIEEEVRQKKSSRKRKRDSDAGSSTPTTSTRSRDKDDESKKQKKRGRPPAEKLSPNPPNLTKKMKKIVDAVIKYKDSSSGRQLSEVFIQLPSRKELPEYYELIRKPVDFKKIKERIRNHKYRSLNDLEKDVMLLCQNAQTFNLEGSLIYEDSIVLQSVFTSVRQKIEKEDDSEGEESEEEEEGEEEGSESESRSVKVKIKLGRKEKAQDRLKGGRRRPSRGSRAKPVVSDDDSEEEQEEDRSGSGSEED
Summary of the method: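 HeLa cells stably expressing HiBiT-BRG1 and LgBiT, 5000 per well, compound-treated 24 h, equilibrated 15 min at room temperature, then lysed with LgBiT-containing Nano-Glo HiBiT lytic reagent and luminescence read. % degradation normalised between DMSO (high control) and 2 μM reference BRM/BRG1 degrader (low control).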

T1 sequence (P51531 whole entry, the tested form may be a part): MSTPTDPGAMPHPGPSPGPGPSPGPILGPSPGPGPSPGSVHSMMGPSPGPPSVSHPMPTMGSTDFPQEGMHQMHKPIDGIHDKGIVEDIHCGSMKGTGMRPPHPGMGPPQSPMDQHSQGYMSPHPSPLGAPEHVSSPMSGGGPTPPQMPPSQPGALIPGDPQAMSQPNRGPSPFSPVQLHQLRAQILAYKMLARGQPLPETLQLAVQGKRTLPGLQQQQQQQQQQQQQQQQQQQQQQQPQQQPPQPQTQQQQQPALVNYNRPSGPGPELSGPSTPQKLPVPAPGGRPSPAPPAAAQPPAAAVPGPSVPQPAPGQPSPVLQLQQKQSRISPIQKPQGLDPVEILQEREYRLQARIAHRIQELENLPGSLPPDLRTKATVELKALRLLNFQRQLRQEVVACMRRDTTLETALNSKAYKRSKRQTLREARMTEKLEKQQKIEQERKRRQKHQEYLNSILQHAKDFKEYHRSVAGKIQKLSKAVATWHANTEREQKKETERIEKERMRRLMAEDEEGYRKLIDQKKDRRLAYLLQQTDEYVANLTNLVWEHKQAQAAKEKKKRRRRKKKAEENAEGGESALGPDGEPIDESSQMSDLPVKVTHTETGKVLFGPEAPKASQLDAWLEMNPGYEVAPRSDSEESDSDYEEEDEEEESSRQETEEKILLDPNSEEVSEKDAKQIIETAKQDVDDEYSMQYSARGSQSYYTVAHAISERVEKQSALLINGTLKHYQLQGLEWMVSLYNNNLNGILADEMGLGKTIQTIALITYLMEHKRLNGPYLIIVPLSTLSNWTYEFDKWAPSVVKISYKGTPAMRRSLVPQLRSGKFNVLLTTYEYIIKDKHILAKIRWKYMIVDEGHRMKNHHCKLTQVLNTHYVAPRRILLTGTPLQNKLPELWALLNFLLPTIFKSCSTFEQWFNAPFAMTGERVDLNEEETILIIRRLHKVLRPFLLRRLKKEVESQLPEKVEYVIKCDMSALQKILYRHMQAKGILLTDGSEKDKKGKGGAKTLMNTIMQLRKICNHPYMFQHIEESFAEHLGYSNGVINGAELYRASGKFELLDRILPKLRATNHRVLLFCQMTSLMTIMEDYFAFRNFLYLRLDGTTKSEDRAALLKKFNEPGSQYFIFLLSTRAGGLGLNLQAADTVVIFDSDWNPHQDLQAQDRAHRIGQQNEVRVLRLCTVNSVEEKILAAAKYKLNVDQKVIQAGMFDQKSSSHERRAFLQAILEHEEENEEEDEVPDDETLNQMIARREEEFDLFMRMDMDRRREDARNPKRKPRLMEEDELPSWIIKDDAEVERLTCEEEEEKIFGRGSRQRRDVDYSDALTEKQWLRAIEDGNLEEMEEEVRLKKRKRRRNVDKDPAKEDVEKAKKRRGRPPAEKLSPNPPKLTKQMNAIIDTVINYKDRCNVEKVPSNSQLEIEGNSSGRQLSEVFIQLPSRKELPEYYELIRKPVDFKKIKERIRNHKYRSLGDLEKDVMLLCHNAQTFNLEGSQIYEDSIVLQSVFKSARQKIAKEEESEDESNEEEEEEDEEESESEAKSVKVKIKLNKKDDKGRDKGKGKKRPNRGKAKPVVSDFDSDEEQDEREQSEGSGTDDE

Structure (SMILES)	BRM HiBit Degradation Maximum (%) (HiBit-BRM fusion protein)	DC50 (HiBit-BRM fusion protein)	Dmax [1]	DC50 [1]	BRG1 HiBit Degradation Maximum (%) [1]
Cc1ncsc1-c1ccc([C@H](C)NC(=O)[C@@H]2C[C@@H](O)CN2C(=O)[C@@H](c2cc(OCCN3CCC(O)(c4cc5nnc(-c6ccccc6O)cc5n4C)CC3)no2)C(C)C)cc1 [Compound 30, (2S,4R)-4-hydroxy-1-[(2R)-2-[3-(2-{4-hydroxy-4-[3-(2-hydroxyphenyl)-5-methylpyrrolo[3,2-c]pyridazin-6-yl]piperidin-1-yl}ethoxy)-1,2-oxazol-5-yl]-3-methylbutanoyl]-N-[(1S)-1-[4-(4-methyl-1,3-thiazol-5-yl)phenyl]ethyl]pyrrolidine-2-carboxamide]	A (“A” indicates maximum degradation ≥75%)	> 10 nM	> 75%	> 100 nM	–
Cc1ncsc1-c1ccc([C@H](C)NC(=O)[C@@H]2C[C@@H](O)CN2C(=O)[C@@H](c2cc(OCCN3CC(n4ccc5nnc(-c6ccccc6O)cc54)C3)no2)C(C)C)cc1 [Compound 31, (2S,4R)-4-hydroxy-1-[(2R)-2-[3-(2-{3-[3-(2-hydroxyphenyl)pyrrolo[3,2-c]pyridazin-5-yl]azetidin-1-yl}ethoxy)-1,2-oxazol-5-yl]-3-methylbutanoyl]-N-[(1S)-1-[4-(4-methyl-1,3-thiazol-5-yl)phenyl]ethyl]pyrrolidine-2-carboxamide]	B (“B” indicates maximum degradation ≥50%)	> 10 nM	< 50%	–	–
Cc1ncsc1-c1ccc([C@H](C)NC(=O)[C@@H]2C[C@@H](O)CN2C(=O)[C@@H](c2cc(OCCN3CC(n4cc(C(F)F)c5nnc(-c6ccccc6O)cc54)C3)no2)C(C)C)cc1 [Compound 32, (2S,4R)-1-((R)-2-(3-(2-(3-(7-(difluoromethyl)-3-(2-hydroxyphenyl)-5H-pyrrolo[3,2-c]pyridazin-5-yl)azetidin-1-yl)ethoxy)isoxazol-5-yl)-3-methylbutanoyl)-4-hydroxy-N—((S)-1-(4-(4-methylthiazol-5-yl)phenyl)ethyl)pyrrolidine-2-carboxamide]	C (“C” indicates maximum degradation <50%)	–	< 50%	–	–
Cc1ncsc1-c1ccc([C@H](C)NC(=O)[C@@H]2C[C@@H](O)CN2C(=O)[C@@H](c2cc(OCCN3C[C@@H]4[C@H](C3)[C@H]4n3c(C)cc4nnc(-c5ccccc5O)cc43)no2)C(C)C)cc1 [Compound 33, (2S,4R)-4-hydroxy-1-[(2R)-2-(3-{2-[(1R,5S,6S)-6-[3-(2-hydroxyphenyl)-6-methylpyrrolo[3,2-c]pyridazin-5-yl]-3-azabicyclo[3.1.0]hexan-3-yl]ethoxy}-1,2-oxazol-5-yl)-3-methylbutanoyl]-N-[(1S)-1-[4-(4-methyl-1,3-thiazol-5-yl)phenyl]ethyl]pyrrolidine-2-carboxamide]	C (“C” indicates maximum degradation <50%)	–	< 50%	–	–
Cc1ncsc1-c1ccc([C@H](C)NC(=O)[C@@H]2C[C@@H](O)CN2C(=O)[C@@H](c2cc(-c3cnc(N4CC[C@H](c5cc6nnc(-c7ccccc7O)cc6n5C5CC5)C4)nc3)no2)C(C)C)cc1 [Compound 34, (2S,4R)-1-((R)-2-(3-(2-((S)-3-(5-cyclopropyl-3-(2-hydroxyphenyl)-5H-pyrrolo[3,2-c]pyridazin-6-yl)pyrrolidin-1-yl)pyrimidin-5-yl)isoxazol-5-yl)-3-methylbutanoyl)-4-hydroxy-N—((S)-1-(4-(4-methylthiazol-5-yl)phenyl)ethyl)pyrrolidine-2-carboxamide]	A (“A” indicates maximum degradation ≥75%)	< 10 nM	< 50%	–	–
Cc1ncsc1-c1ccc([C@H](C)NC(=O)[C@@H]2C[C@@H](O)CN2C(=O)[C@H](c2cc(-c3cnc(N4CC[C@H](c5cc6nnc(-c7ccccc7O)cc6n5C5CC5)C4)nc3)no2)C(C)C)cc1 [Compound 35, (2S,4R)-1-((S)-2-(3-(2-((S)-3-(5-cyclopropyl-3-(2-hydroxyphenyl)-5H-pyrrolo[3,2-c]pyridazin-6-yl)pyrrolidin-1-yl)pyrimidin-5-yl)isoxazol-5-yl)-3-methylbutanoyl)-4-hydroxy-N—((S)-1-(4-(4-methylthiazol-5-yl)phenyl)ethyl)pyrrolidine-2-carboxamide]	A (“A” indicates maximum degradation ≥75%)	> 100 nM	< 50%	–	–
Cc1ncsc1-c1ccc([C@H](C)NC(=O)[C@@H]2C[C@@H](O)CN2C(=O)[C@@H](c2cc(-c3cnc(N4CC[C@@H](c5cc6nnc(-c7ccccc7O)cc6n5C5CC5)C4)nc3)no2)C(C)C)cc1 [Compound 36, (2S,4R)-1-((R)-2-(3-(2-((R)-3-(5-cyclopropyl-3-(2-hydroxyphenyl)-5H-pyrrolo[3,2-c]pyridazin-6-yl)pyrrolidin-1-yl)pyrimidin-5-yl)isoxazol-5-yl)-3-methylbutanoyl)-4-hydroxy-N—((S)-1-(4-(4-methylthiazol-5-yl)phenyl)ethyl)pyrrolidine-2-carboxamide]	A (“A” indicates maximum degradation ≥75%)	< 10 nM	> 75%	< 10 nM	–
Cc1ncsc1-c1ccc([C@H](C)NC(=O)[C@@H]2C[C@@H](O)CN2C(=O)[C@H](c2cc(-c3cnc(N4CC[C@@H](c5cc6nnc(-c7ccccc7O)cc6n5C5CC5)C4)nc3)no2)C(C)C)cc1 [Compound 37, (2S,4R)-1-((S)-2-(3-(2-((R)-3-(5-cyclopropyl-3-(2-hydroxyphenyl)-5H-pyrrolo[3,2-c]pyridazin-6-yl)pyrrolidin-1-yl)pyrimidin-5-yl)isoxazol-5-yl)-3-methylbutanoyl)-4-hydroxy-N—((S)-1-(4-(4-methylthiazol-5-yl)phenyl)ethyl)pyrrolidine-2-carboxamide]	A (“A” indicates maximum degradation ≥75%)	> 10 nM	< 50%	–	–
Cc1ncsc1-c1ccc([C@H](C)NC(=O)[C@@H]2C[C@@H](O)CN2C(=O)[C@H](c2cc(-c3ccnc(N4CC[C@H](c5cc6nnc(-c7ccccc7O)cc6n5C5CC5)C4)n3)no2)C(C)C)cc1 [Compound 40]	C (“C” indicates maximum degradation <50%)	–	< 50%	–	–
Cc1ncsc1-c1ccc([C@H](C)NC(=O)[C@@H]2C[C@@H](O)CN2C(=O)[C@@H](c2cc(-c3ccnc(N4CC[C@H](c5cc6nnc(-c7ccccc7O)cc6n5C5CC5)C4)n3)no2)C(C)C)cc1 [Compound 41]	A (“A” indicates maximum degradation ≥75%)	> 10 nM	< 50%	–	–
Cc1ncsc1-c1ccc([C@H](C)NC(=O)[C@@H]2C[C@@H](O)CN2C(=O)[C@H](c2cc(-c3cnc(N4CCC(c5cc6nnc(-c7ccccc7O)cc6n5C5(C)CC5)CC4)nc3)no2)C(C)C)cc1 [Compound 42]	B (“B” indicates maximum degradation ≥50%)	> 10 nM	< 50%	–	–
Cc1ncsc1-c1ccc([C@H](C)NC(=O)[C@@H]2C[C@@H](O)CN2C(=O)[C@@H](c2cc(-c3cnc(N4CCC(c5cc6nnc(-c7ccccc7O)cc6n5C5(C)CC5)CC4)nc3)no2)C(C)C)cc1 [Compound 43]	A (“A” indicates maximum degradation ≥75%)	< 10 nM	< 50%	–	–
Cc1ncsc1-c1ccc([C@H](C)NC(=O)[C@@H]2C[C@@H](O)CN2C(=O)[C@H](c2cc(-c3cnc(N4CCC(c5cc6nnc(-c7ccccc7O)cc6n5C(C)C)CC4)nc3)no2)C(C)C)cc1 [Compound 44]	B (“B” indicates maximum degradation ≥50%)	< 10 nM	< 50%	–	–
Cc1ncsc1-c1ccc([C@H](C)NC(=O)[C@@H]2C[C@@H](O)CN2C(=O)[C@@H](c2cc(-c3cnc(N4CCC(c5cc6nnc(-c7ccccc7O)cc6n5C(C)C)CC4)nc3)no2)C(C)C)cc1 [Compound 45]	A (“A” indicates maximum degradation ≥75%)	< 10 nM	> 75%	< 10 nM	–
Cc1ncsc1-c1ccc([C@H](C)NC(=O)[C@@H]2C[C@@H](O)CN2C(=O)[C@@H](c2cc(-c3cnc(N4CCC(c5cc6nnc(-c7ccccc7O)cc6n5C5CCC5)CC4)nc3)no2)C(C)C)cc1 [Compound 46]	C (“C” indicates maximum degradation <50%)	–	< 50%	–	–
Cc1ncsc1-c1ccc([C@H](C)NC(=O)[C@@H]2C[C@@H](O)CN2C(=O)[C@@H](c2cc(-c3cnc(N4CCC(c5cc6nnc(-c7ccccc7O)cc6n5C5CCC5)CC4)nc3)no2)C(C)C)cc1 [Compound 47]	A (“A” indicates maximum degradation ≥75%)	< 10 nM	–	–	C (“C” indicates maximum degradation <50%)
Cc1ncsc1-c1ccc(CNC(=O)[C@@H]2C[C@@H](O)CN2C(=O)[C@@H](c2cc(N3CC4(CC(c5cc6nnc(-c7ccccc7O)cc6n5C5CCC5)C4)C3)no2)C(C)C)cc1 [Compound 48, (2S,4R)-1-((R)-2-(3-(6-(5-cyclobutyl-3-(2-hydroxyphenyl)-5H-pyrrolo[3,2-c]pyridazin-6-yl)-2-azaspiro[3.3]heptan-2-yl)isoxazol-5-yl)-3-methylbutanoyl)-4-hydroxy-N-(4-(4-methylthiazol-5-yl)benzyl)pyrrolidine-2-carboxamide]	A (“A” indicates maximum degradation ≥75%)	> 10 nM	< 50%	–	–
